Test results from US20260085067A1, “CYCLIC SULFONAMIDE RIBONUCLEOTIDE REDUCTASE (RNR) INHIBITORS AND USES THEREOF” (Boundless Bio, Inc., priority 2022, published 2026).

Tests used:
[1] = test system: pCHK1 (S345) in Colo320 DM cells; experiment: Alphalisa assay, detection of pCHK1 (S345) in Colo320 DM cells; format: cell-based, human; conditions: Homo sapiens, COLO 320DM, compound overnight (approximately 16 hours)
In short: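 Colo320 DM cells plated overnight, then exposed to compound for about 16 h at 37 °C (DMSO <0.5%). Cells lysed and phospho-CHK1 (S345) quantified by AlphaLisa SureFire with sequential 60 min acceptor and donor incubations at room temperature.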

RNR (RNR1:RNR2 1:1) = molecular target: T1, RNR (RNR1:RNR2 1:1) (Homo sapiens, UniProt P23921); experiment: RNR enzyme activity, rapid-fire mass spectrometry (RF/MS) assay; format: biochemical; conditions: [RNR] 50 nM, 1:1 RNR1:RNR2; CDP 5 μM; ATP 1 mM; 37° C., 45 min; compounds screened up to 50 μM
T1 sequence (P23921 1-792): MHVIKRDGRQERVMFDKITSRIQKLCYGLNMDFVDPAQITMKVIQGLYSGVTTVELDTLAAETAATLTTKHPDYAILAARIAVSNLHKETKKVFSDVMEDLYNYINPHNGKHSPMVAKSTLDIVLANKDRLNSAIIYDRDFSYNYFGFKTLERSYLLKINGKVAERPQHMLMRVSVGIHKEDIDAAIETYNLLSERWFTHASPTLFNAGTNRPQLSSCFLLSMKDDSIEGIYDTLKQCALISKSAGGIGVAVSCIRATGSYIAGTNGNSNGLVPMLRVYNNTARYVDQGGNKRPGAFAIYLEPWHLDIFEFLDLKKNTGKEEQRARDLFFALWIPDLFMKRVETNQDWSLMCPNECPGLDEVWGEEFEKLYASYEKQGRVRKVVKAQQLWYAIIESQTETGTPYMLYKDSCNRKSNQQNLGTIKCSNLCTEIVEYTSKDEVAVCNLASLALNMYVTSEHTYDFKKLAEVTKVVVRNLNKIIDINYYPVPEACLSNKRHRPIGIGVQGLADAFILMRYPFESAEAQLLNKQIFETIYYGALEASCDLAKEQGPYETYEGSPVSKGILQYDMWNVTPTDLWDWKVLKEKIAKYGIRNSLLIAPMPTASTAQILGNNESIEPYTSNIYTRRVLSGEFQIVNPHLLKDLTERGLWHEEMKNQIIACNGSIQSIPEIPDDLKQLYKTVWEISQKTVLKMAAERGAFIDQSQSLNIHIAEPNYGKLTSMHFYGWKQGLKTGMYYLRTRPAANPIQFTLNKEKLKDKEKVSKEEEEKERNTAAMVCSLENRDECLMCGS
In short: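 Human RNR (50 nM final, RNR1:RNR2 1:1) pre-incubated 15 min at room temperature, then reacted 45 min at 37 °C with 5 μM CDP and 1 mM ATP, no NADPH. Reaction quenched with 6% HCOOH; product quantified by rapid-fire mass spectrometry.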

human hepatocytes = experiment: Human hepatocyte stability assay; format: in vitro ADME; conditions: 0.5×10^6 viable cells/ml, time points 0.5 and 60 minutes
Protocol: 1. 10 mM stock solutions of test compounds and positive control were prepared in DMSO. Thawing medium and supplement incubation medium (serum-free) were placed in a 37° C. water bath for at least 15 minutes prior to use.
2. Stock solutions were diluted to 100 μM by combining 198 μL acetonitrile and 2 μL of 10 mM stock solution. Verapamil was use as positive control in the assay.
3. Vials of cryopreserved human hepatocytes were removed from storage, while ensuring that vials remain at cryogenic temperatures. The pressure was removed by loosening and re-tightening the cap. The vials were thawed in a 37° C. water bath with gentle shaking. Vials remained in the water bath until all ice crystals had dissolved and were no longer visible. Vials were sprayed with 70% ethanol before being transferred to a biosafety cabinet. Then the contents were poured into a 50 mL thawing medium conical tube. Vials were centrifuged at 100 g for 10 minutes at room temperature. Thawing medium was aspirated and hepatocytes were re-suspended with serum-free incubation medium to yield ˜1.5×10^6 cells/mL.
4. Cell viability and density were counted using Cellometer® Vision, and then cells were diluted with serum-free incubation medium to a working cell density of 0.5×10^6 viable cells/ml.
5. Aliquots of 198 μL hepatocytes were dispensed into each well of a 96-well non-coated plate. The plate was placed in the incubator on an orbital shaker at 500 rpm for approximately 10 minutes.
6. Aliquots of 2 μL of the 100 μM test compounds or verapamil were added into respective wells of the non-coated 96-well plate to start the reaction. This assay was performed in duplicate. The plate was incubated in the incubator on an orbital shaker at 500 rpm for the designed time points.
7.25 μL of contents were transferred and mixed with 5 volumes (125 μL) of cold acetonitrile with IS (100 nM alprazolam, 200 nM caffeine, 100 nM labetalol and 100 nM tolbutamide) to terminate the reaction at time points of 0.5 and 60 minutes. Samples were centrifuged for 30 minutes at 3,220 g. Then transfer 100 μL of the supernatant to new 96-well plates for analysis. Add 100 μL of distilled water to each sample and mix for analysis by LC-MS/MS.
All calculations were carried out using Microsoft Excel. Peak areas were determined from extracted ion chromatograms. The in vitro half-life (tin) of the parent compound was determined by regression analysis of the percent parent disappearance vs. time curve. • a. The in vitro half-life (in vitro tin) was determined from the slope value: in vitro t1/2=0.693/k • b. Conversion of the in vitro tin (in min) into the in vitro intrinsic clearance (in vitro CLint, in μL/min/10^6 cells) was done using the following equation: […]

Row | SMILES | IC50 [1] [µM] | IC50 (RNR (RNR1:RNR2 1:1)) [µM] | Clhep (human hepatocytes)
1 | Cc1ccc(F)c([C@@H](C)[C@@H](c2n[nH]c(=O)o2)N2CCOc3cc(Cl)ccc3S2(=O)=O)c1C [Example 2, 5-((1S,2R)-1-(7-chloro-1,1-dioxido-3,4-dihydro-2H-benzo[b][1,4,5]oxathiazepin-2-yl)-2-(6-fluoro-2,3-dimethylphenyl)propyl)-1,3,4-oxadiazol-2(3H)-one] | 1 to 5 | < 0.02 | A (0 ml/min/kg ≤ Clhep ≤ 10 ml/min/kg)
2 | COCCCN1CN([C@H](c2n[nH]c(=O)o2)[C@H](C)c2c(F)ccc(C)c2C)S(=O)(=O)c2ccc(Cl)nc21 [Example 48, 5-((1S,2R)-1-(6-chloro-4-(3-methoxypropyl)-1,1-dioxido-3,4-dihydro-2H-pyrido[2,3-e][1,2,4]thiadiazin-2-yl)-2-(6-fluoro-2,3-dimethylphenyl)propyl)-1,3,4-oxadiazol-2 (3H)-one] | ≤ 1 | < 0.02 | A (0 ml/min/kg ≤ Clhep ≤ 10 ml/min/kg)
3 | CC(=O)c1cc(Cl)cc2c1S(=O)(=O)N([C@H](c1n[nH]c(=O)o1)[C@H](C)c1c(F)ccc(C)c1C)CCO2 [Example 60, 5-((1S,2R)-1-(9-acetyl-7-chloro-1,1-dioxido-3,4-dihydro-2H-benzo[b][1,4,5]oxathiazepin-2-yl)-2-(6-fluoro-2,3-dimethylphenyl)propyl)-1,3,4-oxadiazol-2 (3H)-one] | ≤ 1 | < 0.02 | B (10 ml/min/kg < Clhep ≤ 20 ml/min/kg)
4 | CC(=O)c1cc(Cl)cc2c1S(=O)(=O)N([C@H](c1n[nH]c(=O)o1)[C@H](C)c1c(F)ccc(C)c1C)CN2C [Example 75, 5-((1S,2R)-1-(8-acetyl-6-chloro-4-methyl-1,1-dioxido-3,4-dihydro-2H-benzo[e][1,2,4]thiadiazin-2-yl)-2-(6-fluoro-2,3-dimethylphenyl)propyl)-1,3,4-oxadiazol-2 (3H)-one] | ≤ 1 | < 0.02 | B (10 ml/min/kg < Clhep ≤ 20 ml/min/kg)

More lines, main results first:

Row | IC50 [1] [µM] | IC50 (RNR (RNR1:RNR2 1:1)) [µM] | SMILES | Clhep (human hepatocytes)
5 | ≤ 1 | < 0.02 | Cc1ccc(F)c([C@@H](C)[C@@H](c2n[nH]c(=O)o2)N2CN(C)c3cc(Cl)ccc3S2(=O)=O)c1C [Example 1, 5-((1S,2R)-1-(6-chloro-4-methyl-1,1-dioxido-3,4-dihydro-2H-benzo[e][1,2,4]thiadiazin-2-yl)-2-(6-fluoro-2,3-dimethylphenyl)propyl)-1,3,4-oxadiazol-2(3H)-one] | A (0 ml/min/kg ≤ Clhep ≤ 10 ml/min/kg)
6 | ≤ 1 | < 0.02 | Cc1ccc(F)c([C@@H](C)[C@@H](c2n[nH]c(=O)o2)N2CN(C)c3nc(Cl)ccc3S2(=O)=O)c1C [Example 3, 5-((1S,2R)-1-(6-chloro-4-methyl-1,1-dioxido-3,4-dihydro-2H-pyrido[2,3-e][1,2,4]thiadiazin-2-yl)-2-(6-fluoro-2,3-dimethylphenyl)propyl)-1,3,4-oxadiazol-2 (3H)-one] | B (10 ml/min/kg < Clhep ≤ 20 ml/min/kg)
7 | ≤ 1 | 0.02 to 0.1 | Cc1ccc(F)c([C@@H](C)[C@@H](c2n[nH]c(=O)o2)N2CNc3cc(Cl)ccc3S2(=O)=O)c1C [Example 8, 5-((1S,2R)-1-(6-chloro-1,1-dioxido-3,4-dihydro-2H-benzo[e][1,2,4]thiadiazin-2-yl)-2-(6-fluoro-2,3-dimethylphenyl)propyl)-1,3,4-oxadiazol-2 (3H)-one] | B (10 ml/min/kg < Clhep ≤ 20 ml/min/kg)
8 | ≤ 1 | < 0.02 | Cc1ccc(F)c([C@@H](C)[C@@H](c2n[nH]c(=O)o2)N2CN(CCO)c3cc(Cl)ccc3S2(=O)=O)c1C [Example 50, 5-((1S,2R)-1-(6-chloro-4-(2-hydroxyethyl)-1,1-dioxido-3,4-dihydro-2H-benzo[e][1,2,4]thiadiazin-2-yl)-2-(6-fluoro-2,3-dimethylphenyl)propyl)-1,3,4-oxadiazol-2 (3H)-one] | A (0 ml/min/kg ≤ Clhep ≤ 10 ml/min/kg)
